# System: Genes belonging to other category
# Assay: DNA chip mRNA expression in yeast, genes belonging to other category (Table 9)
# Format: cell-based, Saccharomyces cerevisiae S288C
# Procedure, shortened: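 Measured as treated-to-untreated fluorescence ratio on a full-genome yeast DNA chip. Cells (S288C, YPD, 25° C.) were exposed in log phase for two hours to one chemical, dosed to curb growth without killing.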
compound,measurement,setting,value
"N#Cc1c(Cl)c(Cl)c(Cl)c(C#N)c1Cl [(9), 2,4,5,6-tetrachloro-1,3-benzenedicarbonitrile]",The level of expressed mRNA in the presence of chemical substance/The level of expressed mRNA in the absence of chemical substance,yeast gene YJR091C,2.4
same,The level of expressed mRNA in the presence of chemical substance/The level of expressed mRNA in the absence of chemical substance,yeast gene YJR099W,1.4
same,The level of expressed mRNA in the presence of chemical substance/The level of expressed mRNA in the absence of chemical substance,yeast gene YJR110W,4.9
same,The level of expressed mRNA in the presence of chemical substance/The level of expressed mRNA in the absence of chemical substance,yeast gene YJR122W,5.3
same,The level of expressed mRNA in the presence of chemical substance/The level of expressed mRNA in the absence of chemical substance,yeast gene YKL008C,0.3
same,The level of expressed mRNA in the presence of chemical substance/The level of expressed mRNA in the absence of chemical substance,yeast gene YKL013C,1.5
same,The level of expressed mRNA in the presence of chemical substance/The level of expressed mRNA in the absence of chemical substance,yeast gene YKL039W,1.3
same,The level of expressed mRNA in the presence of chemical substance/The level of expressed mRNA in the absence of chemical substance,yeast gene YKL041W,1.6
same,The level of expressed mRNA in the presence of chemical substance/The level of expressed mRNA in the absence of chemical substance,yeast gene YKL079W,2.3
same,The level of expressed mRNA in the presence of chemical substance/The level of expressed mRNA in the absence of chemical substance,yeast gene YKL096W,0.0
same,The level of expressed mRNA in the presence of chemical substance/The level of expressed mRNA in the absence of chemical substance,yeast gene YKL139W,1.6
same,The level of expressed mRNA in the presence of chemical substance/The level of expressed mRNA in the absence of chemical substance,yeast gene YKL165C,0.4
same,The level of expressed mRNA in the presence of chemical substance/The level of expressed mRNA in the absence of chemical substance,yeast gene YKL193C,1.0
same,The level of expressed mRNA in the presence of chemical substance/The level of expressed mRNA in the absence of chemical substance,yeast gene YKL196C,4.3
same,The level of expressed mRNA in the presence of chemical substance/The level of expressed mRNA in the absence of chemical substance,yeast gene YKR014C,2.4
same,The level of expressed mRNA in the presence of chemical substance/The level of expressed mRNA in the absence of chemical substance,yeast gene YKR068C,2.4
same,The level of expressed mRNA in the presence of chemical substance/The level of expressed mRNA in the absence of chemical substance,yeast gene YLL054C,2.4
same,The level of expressed mRNA in the presence of chemical substance/The level of expressed mRNA in the absence of chemical substance,yeast gene YLR080W,2.3
same,The level of expressed mRNA in the presence of chemical substance/The level of expressed mRNA in the absence of chemical substance,yeast gene YLR093C,1.5
same,The level of expressed mRNA in the presence of chemical substance/The level of expressed mRNA in the absence of chemical substance,yeast gene YLR118C,1.1
same,The level of expressed mRNA in the presence of chemical substance/The level of expressed mRNA in the absence of chemical substance,yeast gene YLR120C,1.8
same,The level of expressed mRNA in the presence of chemical substance/The level of expressed mRNA in the absence of chemical substance,yeast gene YLR136C,0.9
same,The level of expressed mRNA in the presence of chemical substance/The level of expressed mRNA in the absence of chemical substance,yeast gene YLR178C,4.3
same,The level of expressed mRNA in the presence of chemical substance/The level of expressed mRNA in the absence of chemical substance,yeast gene YLR206W,1.5
same,The level of expressed mRNA in the presence of chemical substance/The level of expressed mRNA in the absence of chemical substance,yeast gene YLR248W,2.3
same,The level of expressed mRNA in the presence of chemical substance/The level of expressed mRNA in the absence of chemical substance,yeast gene YLR250W,2.7
same,The level of expressed mRNA in the presence of chemical substance/The level of expressed mRNA in the absence of chemical substance,yeast gene YLR251W,2.1
same,The level of expressed mRNA in the presence of chemical substance/The level of expressed mRNA in the absence of chemical substance,yeast gene YLR327C,3.0
same,The level of expressed mRNA in the presence of chemical substance/The level of expressed mRNA in the absence of chemical substance,yeast gene YLR356W,2.3
same,The level of expressed mRNA in the presence of chemical substance/The level of expressed mRNA in the absence of chemical substance,yeast gene YLR362W,3.5
same,The level of expressed mRNA in the presence of chemical substance/The level of expressed mRNA in the absence of chemical substance,yeast gene YLR389C,2.4
same,The level of expressed mRNA in the presence of chemical substance/The level of expressed mRNA in the absence of chemical substance,yeast gene YLR391W,0.4
same,The level of expressed mRNA in the presence of chemical substance/The level of expressed mRNA in the absence of chemical substance,yeast gene YLR429W,0.9
same,The level of expressed mRNA in the presence of chemical substance/The level of expressed mRNA in the absence of chemical substance,yeast gene YMR004W,94.2
same,The level of expressed mRNA in the presence of chemical substance/The level of expressed mRNA in the absence of chemical substance,yeast gene YMR027W,1.1
same,The level of expressed mRNA in the presence of chemical substance/The level of expressed mRNA in the absence of chemical substance,yeast gene YMR053C,2.2
same,The level of expressed mRNA in the presence of chemical substance/The level of expressed mRNA in the absence of chemical substance,yeast gene YMR077C,1.9
same,The level of expressed mRNA in the presence of chemical substance/The level of expressed mRNA in the absence of chemical substance,yeast gene YMR091C,2.1
same,The level of expressed mRNA in the presence of chemical substance/The level of expressed mRNA in the absence of chemical substance,yeast gene YMR094W,−0.1
same,The level of expressed mRNA in the presence of chemical substance/The level of expressed mRNA in the absence of chemical substance,yeast gene YMR104C,0.6
same,The level of expressed mRNA in the presence of chemical substance/The level of expressed mRNA in the absence of chemical substance,yeast gene YMR110C,2.3
same,The level of expressed mRNA in the presence of chemical substance/The level of expressed mRNA in the absence of chemical substance,yeast gene YMR112C,1.4
same,The level of expressed mRNA in the presence of chemical substance/The level of expressed mRNA in the absence of chemical substance,yeast gene YMR139W,2.8
same,The level of expressed mRNA in the presence of chemical substance/The level of expressed mRNA in the absence of chemical substance,yeast gene YMR197C,1.9
same,The level of expressed mRNA in the presence of chemical substance/The level of expressed mRNA in the absence of chemical substance,yeast gene YMR219W,2.3
same,The level of expressed mRNA in the presence of chemical substance/The level of expressed mRNA in the absence of chemical substance,yeast gene YMR226C,2.6
same,The level of expressed mRNA in the presence of chemical substance/The level of expressed mRNA in the absence of chemical substance,yeast gene YMR238W,1.3
same,The level of expressed mRNA in the presence of chemical substance/The level of expressed mRNA in the absence of chemical substance,yeast gene YMR262W,3.0
same,The level of expressed mRNA in the presence of chemical substance/The level of expressed mRNA in the absence of chemical substance,yeast gene YMR275C,2.4
same,The level of expressed mRNA in the presence of chemical substance/The level of expressed mRNA in the absence of chemical substance,yeast gene YMR276W,1.8

# — patent publication US8192962B2, “Processes for detecting toxic substances” (Daikin Industries, Ltd., priority 2001, dated 2012)
